Results on five molecules are retold here after ChEMBL document CHEMBL1135237, “Synthesis and antibacterial activity of linezolid analogues” (2002).

In brackets after ≈: the same amount, converted by molar mass.

Assay type in all cases: functional
The test system of assay [1] is Streptococcus sp. Put plainly: Compound was evaluated for minimum inhibitory concentration against Streptococcus A 29 strain.
Assay [2] deals with Streptococcus pyogenes. Put plainly: Compound was evaluated for minimum inhibitory concentration against Streptococcus pyogenes 102 strain.
Assay [3] deals with Staphylococcus epidermidis. The assay is described as follows: Compound was evaluated for minimum inhibitory concentration against Staphylococcus epidermidis 9759 strain.
Assay [4] relates to Streptococcus pneumoniae. Put plainly: Compound was evaluated for minimum inhibitory concentration against Streptococcus pneumoniae 9757 strain.
Assay [5] relates to Streptococcus pneumoniae. Put plainly: Compound was evaluated for minimum inhibitory concentration against Streptococcus pneumoniae 9798 strain.
The subject of assay [6] is Staphylococcus aureus. The assay is described as follows: Compound was evaluated for minimum inhibitory concentration against Staphylococcus aureus 9721 strain.
For assay [7], the system named is Enterococcus faecalis. The assay is described as follows: Compound was evaluated for minimum inhibitory concentration against Enterococcus faecalis 50.
The test system of assay [8] is Streptococcus sp. The assay is described as follows: Compound was evaluated for minimum inhibitory concentration against Streptococcus A 44 strain.
The test system of assay [9] is Streptococcus pneumoniae. The assay is described as follows: Compound was evaluated for minimum inhibitory concentration against Streptococcus pneumoniae 9753 strain.
Assay [10] has as its system Enterococcus faecalis. The assay is described as follows: Compound was evaluated for minimum inhibitory concentration against Enterococcus faecalis 68.
For assay [11], the system named is Staphylococcus aureus. Put plainly: Compound was evaluated for minimum inhibitory concentration against Staphylococcus aureus 9776 strain.
Assay [12] deals with Staphylococcus aureus. The assay is described as follows: Compound was evaluated for minimum inhibitory concentration against Staphylococcus aureus 9616 strain.
Assay [13] has as its system Staphylococcus aureus. The assay is described as follows: Compound was evaluated for minimum inhibitory concentration against Staphylococcus aureus 966 strain.
Assay [14] relates to Staphylococcus aureus. The assay is described as follows: Compound was evaluated for minimum inhibitory concentration against Staphylococcus aureus 975 strain.
The subject of assay [15] is Streptococcus pyogenes. Put plainly: Compound was evaluated for minimum inhibitory concentration against Streptococcus pyogenes 114 strain.
The subject of assay [16] is Staphylococcus epidermidis. The assay is described as follows: Compound was evaluated for minimum inhibitory concentration against Staphylococcus epidermidis 975 strain.
Assay [17] deals with Staphylococcus epidermidis. The assay is described as follows: Compound was evaluated for minimum inhibitory concentration against Staphylococcus epidermidis 9753 strain.
The subject of assay [18] is Enterococcus faecalis. Put plainly: Compound was evaluated for minimum inhibitory concentration against Enterococcus faecalis 50 strain.

Broadly, the MIC is the smallest concentration in the dilution series that meets the test's criterion for growth inhibition. For `CC(=O)NC[C@H]1CN(c2ccc(N3CCN(c4ccccc4)CC3)c(F)c2)C(=O)O1`, the MIC in the assay with Streptococcus sp. [1] turned out to be 0.5 µg/mL (≈ 1.21 µM); against Streptococcus pyogenes [2] it was 1 µg/mL (≈ 2.42 µM); in [3], 1 µg/mL (≈ 2.42 µM); in the assay on Streptococcus pneumoniae [4], 0.25 µg/mL (≈ 0.606 µM); in the assay with Streptococcus pneumoniae [5], 1 µg/mL (≈ 2.42 µM); with Staphylococcus aureus [6], 1 µg/mL (≈ 2.42 µM). Further, the MIC is 1 µg/mL (≈ 2.42 µM) with Enterococcus faecalis [7]; 2 µg/mL (≈ 4.85 µM) in the assay on Streptococcus sp. [8]; 0.5 µg/mL (≈ 1.21 µM) against Streptococcus pneumoniae [9]; 2 µg/mL (≈ 4.85 µM) against Enterococcus faecalis [10]; 1 µg/mL (≈ 2.42 µM) in the assay on Staphylococcus aureus [11]; 1 µg/mL (≈ 2.42 µM) against Staphylococcus aureus [12]. Further, the MIC with Staphylococcus aureus [13] came out at 2 µg/mL (≈ 4.85 µM); with Staphylococcus aureus [14] it was 1 µg/mL (≈ 2.42 µM); with Streptococcus pyogenes [15], 1 µg/mL (≈ 2.42 µM); in assay [16], 1 µg/mL (≈ 2.42 µM); in [17], 0.5 µg/mL (≈ 1.21 µM).

Take `CC(=O)NC[C@H]1CN(c2ccc(N3CCN(C(c4ccccc4)c4ccccc4)CC3)c(F)c2)C(=O)O1`: the MIC against Streptococcus sp. [1] was 4 µg/mL (≈ 7.96 µM); against Streptococcus pyogenes [2], 32 µg/mL (≈ 63.7 µM); in assay [3], 16 µg/mL (≈ 31.8 µM); against Streptococcus pneumoniae [4], 4 µg/mL (≈ 7.96 µM); against Streptococcus pneumoniae [5], 8 µg/mL (≈ 15.9 µM); against Staphylococcus aureus [6] it was 16 µg/mL (≈ 31.8 µM). The MIC in the assay on Enterococcus faecalis [7] was 8 µg/mL (≈ 15.9 µM); against Streptococcus sp. [8] it was 32 µg/mL (≈ 63.7 µM); against Streptococcus pneumoniae [9], 4 µg/mL (≈ 7.96 µM); with Enterococcus faecalis [10], 32 µg/mL (≈ 63.7 µM); against Staphylococcus aureus [11] it was 8 µg/mL (≈ 15.9 µM); in the assay on Staphylococcus aureus [12], 8 µg/mL (≈ 15.9 µM). Moreover, the minimal inhibitory concentration (MIC) in the assay on Staphylococcus aureus [13] is 8 µg/mL (≈ 15.9 µM); against Staphylococcus aureus [14], 4 µg/mL (≈ 7.96 µM); in the assay on Streptococcus pyogenes [15] it was 16 µg/mL (≈ 31.8 µM); in assay [16] it was 8 µg/mL (≈ 15.9 µM); in assay [17] it was 4 µg/mL (≈ 7.96 µM).

Take `CC(=O)NC[C@H]1CN(c2ccc(N3CCN(c4ccc(F)cc4)CC3)c(F)c2)C(=O)O1`: the MIC (against Streptococcus sp. [1]; in the assay on Streptococcus pyogenes [2]; in assay [3]; in the assay with Streptococcus pneumoniae [4]; in the assay with Streptococcus pneumoniae [5]; with Staphylococcus aureus [6]) was 1 µg/mL (≈ 2.32 µM) throughout. Also, the MIC in the assay on Enterococcus faecalis [7] was 1 µg/mL (≈ 2.32 µM); against Streptococcus sp. [8], 1 µg/mL (≈ 2.32 µM); against Streptococcus pneumoniae [9], 1 µg/mL (≈ 2.32 µM); against Enterococcus faecalis [10], 4 µg/mL (≈ 9.29 µM); in the assay on Staphylococcus aureus [11], 1 µg/mL (≈ 2.32 µM); with Staphylococcus aureus [12], 2 µg/mL (≈ 4.65 µM). Moreover, the MIC in the assay with Staphylococcus aureus [13] was found to be 1 µg/mL (≈ 2.32 µM); in the assay on Staphylococcus aureus [14] it was 0.5 µg/mL (≈ 1.16 µM); against Streptococcus pyogenes [15], 2 µg/mL (≈ 4.65 µM); in assay [16], 1 µg/mL (≈ 2.32 µM); in assay [17], 0.5 µg/mL (≈ 1.16 µM).

As to `CC(=O)NC[C@H]1CN(c2ccc(N3CCOCC3)c(F)c2)C(=O)O1` [LINEZOLID], the MIC amounted to 0.25 µg/mL (≈ 0.741 µM) against Streptococcus sp. [1]; 0.5 µg/mL (≈ 1.48 µM) in the assay on Streptococcus pyogenes [2]; 0.5 µg/mL (≈ 1.48 µM) in assay [3]; 0.5 µg/mL (≈ 1.48 µM) in the assay with Enterococcus faecalis [18]; 0.5 µg/mL (≈ 1.48 µM) against Staphylococcus aureus [6]; 0.5 µg/mL (≈ 1.48 µM) in the assay on Streptococcus sp. [8]. Besides, the MIC with Staphylococcus aureus [11] amounted to 0.5 µg/mL (≈ 1.48 µM); in the assay with Staphylococcus aureus [12] it was 1 µg/mL (≈ 2.96 µM); with Staphylococcus aureus [13], 0.5 µg/mL (≈ 1.48 µM); with Staphylococcus aureus [14], 0.25 µg/mL (≈ 0.741 µM); in the assay with Streptococcus pyogenes [15] it was 0.5 µg/mL (≈ 1.48 µM); in [16], 0.5 µg/mL (≈ 1.48 µM). The MIC in assay [17] turned out to be 0.25 µg/mL (≈ 0.741 µM).

`COc1ccc(N2CCN(c3ccc(N4C[C@H](CNC(C)=O)OC4=O)cc3F)CC2)cc1`: the MIC (against Streptococcus sp. [1]; in the assay with Streptococcus pyogenes [2]; in assay [3]; against Streptococcus pneumoniae [4]; against Streptococcus pneumoniae [5]; in the assay on Staphylococcus aureus [6]) was 1 µg/mL (≈ 2.26 µM) each time. Besides, the MIC against Enterococcus faecalis [7] was 1 µg/mL (≈ 2.26 µM); against Streptococcus sp. [8], 1 µg/mL (≈ 2.26 µM); against Streptococcus pneumoniae [9] it was 1 µg/mL (≈ 2.26 µM); in the assay with Staphylococcus aureus [11], 1 µg/mL (≈ 2.26 µM); in the assay on Staphylococcus aureus [12], 1 µg/mL (≈ 2.26 µM); with Staphylococcus aureus [13] it was 2 µg/mL (≈ 4.52 µM). For the same molecule, the MIC is 1 µg/mL (≈ 2.26 µM) against Staphylococcus aureus [14], 2 µg/mL (≈ 4.52 µM) with Streptococcus pyogenes [15], 1 µg/mL (≈ 2.26 µM) in assay [16] and 1 µg/mL (≈ 2.26 µM) in assay [17].
